Data set [1] in a line: MTT Assay for Cellular Cytotoxicity. It is filed as cell-based, human. Conditions: human, H9 cells, five days incubation, read-out: Cytotoxity Assay (EC50). Here is the method:
(§1) In order to roughly assess the cytotoxicity of the compounds of formula 1, several such compounds were tested in the MTT Cellular Cytotoxicity Assay described below.
(§2) The MTT [3-(4,5-dimethylthiazol-2yl)-2,5-diphenyl tetrazolium bromide) assay is based on cleavage of tetrazolium bromide by metabolically active cells, resulting in a highly quantitative blue color. This assay has been previously described (1) but has been optimized for the purposes of the testing reported herein.
(§3) Cells (100µl) are plated in microtest plate wells at a concentration of 10^5 cells per ml in the presence of varying concentrations of inhibitor. The cells are incubated at 37°C in a humidified CO2 incubator. […] After 4 hours additional incubation at 37°C, 60µl of Triton-X is added to each well and thoroughly mixed to aid the solubilization of the crystals. Absolute ethanol (5µl) is added to each well and the resulting mixture is incubated for 30 minutes at 60°C and immediately read on a plate reader (Dynatech) at a wavelength of 570nm.
(§4) Data from this assay are used to generate a nonlinear regression analysis, which yields the EC50.

Data set [2] relates to HTLV-IIIB strain of HIV-1. Put plainly: Human T-Cell Culture Assay (syncytia formation in c8166 cells). The class given is cell-based. The note with it: Human immunodeficiency virus 1, IIIB, 96 h, syncytia four days after virus challenge. Here is the method:
In order to confirm that compounds which are active in the RT Assay also have the ability to inhibit HIV-1 replication in a living system, several compounds of formula I were also tested in the Human T-Cell Culture Assay described below.
Formation of syncytia is a feature of in vitro cultures of CD4+ T-cells infected with HIV-1. In this assay, T-cells are treated with a putative replication inhibiting compound and then infected with HIV-1. After incubation the culture is checked for the formation of syncytia. The absence or reduction is the number of syncytia is used as a measure of the test compound's ability to inhibit HIV replication.
The target cells, designated c8166, are a subclone of human lymphoma cells of T-cell origin and are established at an initial density of 5x10^4 per 100 ul in RPMI 1640 (+ 10% fetal bovine serum) culture medium in 96 well flat bottom plates. A selected amount of test compound, dissolved in DMSO is included. After 24 hours, 50-100 TCID50's (the dose that results in induced effect in 50% of test cultures) of the HTLV-IIIB strain of HIV-1 (2) are innoculated into each culture. Control cultures receive compound or virus only. Four days after virus challenge, cultures are visually examined for the frequency and distribution of virus-induced giant cell syncytia. The percent inhibition by the test compound is determined by comparison with control values. Confirmation of the presence or absence of virus replication is accomplished by harvesting the cell free culture fluids from all experimental groups to determine the present or absence of infectious progeny through the induction of syncytia formation in secondary human T-cell cultures after 3 days.

Another data set has as its target T1, HIV-1 RT (Human immunodeficiency virus type 1 group M subtype B, UniProt P03367).
T1 construct: Reverse transcriptase enzyme from the LAV strain of Human Immunodeficiency Virus (HIV-1) (1) was isolated from the bacterial strain JM109; made in house; host or cells: E. coli JM109, clone pBRTprt1+ in vector pIBI21, lac promoter, IPTG induction
Briefly: Reverse Transcriptase (RT) Assay: inhibition of RNA-dependent DNA polymerase activity. The note with it: for inhibition at 10 µg/mL: read-out: RT Inhibition % @ 10µg/ml. It is filed as biochemical. The text has this:
Utilizing the Reverse Transcriptase (RT) Assay descibed below, compounds can be tested for their ability to inhibit the RNA-dependent DNA polymerase activity of HIV-1 RT. Certain specific compounds of formula I described in the Examples which appear below, were so tested. The above-described compounds of formula IA were also so tested.
Among the enzymes for which Human Immunodeficiency Virus (HIV-1) encodes is a reverse transcriptase (1), so-named because it transcribes a DNA copy from an RNA template. This activity can be quantitatively measured in a cell-free enzyme assay which has been previously described (2), and is based upon the observation that reverse transcriptase is able to use a synthetic template [poly r(C) primed with oligo d(G)] to transcribe a radio-labelled, acid-precipitable DNA strand utilizing ^3H-dGTP as a substrate.
Reverse transcriptase enzyme from the LAV strain of Human Immunodeficiency Virus (HIV-1) (1) was isolated from the bacterial strain JM109 (3) expressing the DNA clone pBRTprt1+ (2) which is under the control of the lac promoter in the expression vector pIBI21 (4). An overnight culture grown in 2XYT medium (37°C, 225 rpm) (5) supplemented with 100 µg/ml ampicillin for positive selection is inoculated at a 1:40 dilution into M9 medium supplemented with 10µg/ml thiamine, 0.5% casamino acids, and 50 µg/ml ampicillin (5). The culture is incubated (37°C, 225 rpm) until it reaches an OD540 of 0.3-0.4. At that time the repressor inhibitor IPTG (isopropyl b-D-thiogalactopyranoside) is added to 0.5mM and the mixture is incubated for 2 additional hours. Bacteria are pelleted, resuspended in a 50mM Tris, 0.6mM EDTA, 0.375M NaCl buffer and digested by the addition of lysozyme (1mg/ml) for 30 minutes on ice. The cells are lysed by the addition of 0.2% NP-40 and brought to 1M NaCl.
After removal of the insoluble debris by centrifugation, the protein is precipitated by the addition of 3 volumes of water-saturated ammonium sulfate. The enzyme is pelleted, resuspended in RT buffer (50mM Tris pH 7.5. 1mM EDTA, 5mM DTT, 0.1% NP-40, 0.1M NaCl, and 50% glycerol), and stored at -70°C for further use.
The 2X concentrated stock reaction mixture is aliquoted and stored at -20°C. The mixture is stable and thawed for use in each assay. This enzyme assay has been adapted to a 96 well microtiter plate system, and has been previously described (6). Tris buffer (50 mM, pH 7.4), vehicle (solvent diluted to match the compound dilution), or compounds in vehicle are dispensed into 96-well microtiter plates (10µl/well: 3 wells/compound). The HIV-1 RT enzyme is thawed and diluted in 50mM Tris pH 7.4 so that fifteen µl of diluted enzyme contain 0.001 Unit (one unit is that amount of enzyme to transform 1 micromole of substrate per minute at 25°C) and 15µl are dispensed per well. Twenty µl of 0.12 - 0.5M EDTA are added to the first three wells of the microtiter plate. EDTA chelates the Mg^++ present and prevents reverse transcription. This group serves as background polymerization which is subtracted from all other groups. Twenty-five ul of the 2X reaction mixture are added to all wells and the assay is allowed to incubate at room temperature for 60 minutes. The assay is terminated by precipitating the DNA in each well with 50µl of trichloracetic acid (TCA) (10% w/v) in sodium pyrophosphate (1% w/v). The microtiter plate is incubated for 15 minutes at 4°C and the precipitate is fixed onto #30 glass fiber paper (Schleicher & Schuell) using a Skatron semi-automatic harvester. The filters are then washed with additional TCA (5%) containing sodium pyrophosphate (1%), rinsed with aqueous ethanol (70%), dried, and transferred to scintillation vials (6). Each vial receives 2 mls of scintillation cocktail and is counted in a Beckman beta counter. […]

The test system of the next data set is H9 cell line. Put plainly: MTT Assay for Cellular Cytotoxicity. The class given is cell-based, human. Conditions: H9 cells, five days incubation, unit inferred, 7200 min, read-out: Cytotoxity Assay (EC50). Here is the method: as §1, §2, §3, §4
[3] abbreviates: 10µg/ml, Table I, compounds of formula I.

The record followed here is patent publication EP0393604B1, “6,11-Dihydro-5H-pyrido(2,3-b)(1,5,)benzodiazepin-5-ones and thiones and their use in the prevention or treatment of AIDS” (priority 1989, dated 1990).

Like-named read-outs stand apart in the source and are kept apart here.

With `CCN1c2ccccc2N(C)C(=O)c2cccnc21` [Example 2, 6,11-Dihydro-11-ethyl-6-methyl-5H-pyrido[2,3-b][1,5]benzodiazepin-5-one], the CC50 at 120 h in data set [1] was found to be 80 µM. The inhibition at 4 µM in data set [2] (@ 4µM) stood at 100%. In addition, the inhibition at 10 µg/mL on HIV-1 RT (setting [3]) was 97%.

As for `CN1C(=O)c2cccnc2N(C)c2cc(C(F)(F)F)ccc21` [Example 4, 6,11-Dihydro-6,11-dimethyl-9-(trifluoromethyl)-5H-pyrido[2,3-b][1,5]benzodiazepin-5-one], the CC50 at 120 h in data set [1] is 49 µM. Moreover, at HIV-1 RT (setting [3]), the inhibition at 10 µg/mL worked out at 79%.

As to `CC(C)N1c2ccccc2N(C)C(=O)c2cccnc21` [Example 5, 6,11-Dihydro-6-methyl-11-methylethyl-5H-pyrido[2,3-b][1,5]benzodiazepin-5-one], the CC50 at 120 h in data set [1] amounted to 50 µM. The compound further came in with an inhibition at 19 µM in data set [2] (@19µM) of 100%. Besides, the inhibition at 10 µg/mL on HIV-1 RT (setting [3]) came to 94%.

As to `CN1C(=O)c2cccnc2N(C)c2ccc(Cl)cc21` [Example 8, 8-Chloro-6,11-dihydro-6,11-dimethyl-5H-pyrido[2,3-b][1,5]benzodiazepin-5-one], the CC50 at 120 h in data set [1] was found to be 37 µM. Also, the inhibition at 10 µg/mL on HIV-1 RT (setting [3]) came to 55%.

As for `Cc1cc2c(cc1C)N(C)c1ncccc1C(=O)N2C` [Example 9, 6,11-Dihydro-6,8,9,11-tetramethyl-5H-pyrido[2,3-b][1,5]-benzodiazepin-5-one], the CC50 at 120 h in data set [1] amounted to 4 µM. Also, the inhibition at 10 µg/mL on HIV-1 RT (setting [3]) was determined as 92%.

On to `Cc1ccc2c(n1)N(C)c1cc(C)c(C)cc1N(C)C2=O` [Example 15, 6,11-Dihydro-2,6,8,9,11-pentamethyl-5H-pyrido[2,3-b][1,5]benzodiazepin-5-one], for which the CC50 at 120 h in data set [1] (unit inferred) stood at 18 µM. Besides, the inhibition at 10 µg/mL at HIV-1 RT (setting [3]) was 39%.

Take `CC(=O)N1c2cc(C)c(C)cc2N(C)C(=O)c2cccnc21` [Example 19, 11-Acetyl-6,11-dihydro-6,8,9-trimethyl-5H-pyrido[2,3-b][1,5]benzodiazepin-5-one]: in data set [1] (unit inferred), the CC50 at 120 h was found to be 85 µM. In addition, the inhibition at 10 µg/mL at HIV-1 RT (setting [3]) is 90%.

In data set [2] (@3µM), `CCN1c2ccccc2N(C)C(=S)c2cccnc21` [Example 22, 6,11-Dihydro-11-ethyl-6-methyl-5H-pyrido[2,3-b][1,5]benzodiazepin-5-thione] came in with an inhibition at 3 µM of 100%. Further, on HIV-1 RT, the inhibition at 10 µg/mL came to 100%.

On to `CCN1C(=O)c2cccnc2Nc2cc(C)ccc21` [Formula IA h, 6-ethyl-9-methyl-6,11-dihydro-5H-pyrido[2,3-b][1,5]benzodiazepin-5-one], for which, at HIV-1 RT (10µg/ml, Table II, known compounds of formula IA), the inhibition at 10 µg/mL is 78%.

“Mixture of 6,11-Dihydro-2,4,6,8,11-and 6,11-dihydro-2,4,6,9,11- pentamethyl-5H-pyrido[2,3-b][1,5]benzodiazepin-5-one [Example 17]”: the CC50 with H9 cell line came to 9 µM. Besides, at HIV-1 RT (setting [3]), the “RT Inhibition % @ 10µg/ml” value was determined as 49%.
